Patent US20220249397A1, “Automated Dosing Protocol for Use of Cannabinoids or Other Psychoactive Substances” (Function Better Inc., priority 2021, published 2022)

Tests used:
Assay type in all cases: in vivo, human
[1] = tested on: subjects being treated for pain; assay: Experimental trial, 9-day dosing protocol, subjects treated for pain
Experimental: (§1) An experimental trial was conducted on 11 subjects who followed a 9-day dosing protocol for CBD oil. The subjects sought treatment for anxiety, pain, or sleep. On a daily basis, the subjects rated the intensity of their symptoms on a 0-10 numeric scale, with 0 being best and 10 being worst intensity. This scale was constructed similar to the standard ‘Numeric Pain Rating Scale’ often used in clinical practice for pain assessment.
(§2) The trial further enrolled five additional subjects. […] Days 1-3 were a maximum of 5 mg CBD; days 4-6 were a maximum of 10 mg CBD; days 7-9 were a maximum of 20 mg CBD.

[2] = tested on: subjects being treated for either anxiety, sleep, or pain; assay: Experimental trial, all 16 subjects combined (anxiety, sleep or pain), mean daily scores
Experimental: as §1, §2

[3] = tested on: subjects being treated for anxiety; assay: Experimental trial, 9-day dosing protocol, subjects treated for anxiety
Experimental: as §1, §2

[4] = tested on: user with pain; assay: Example 1: 9 day dose titration protocol by automated text messages, user treating pain; design: key to pain score: higher = worse pain; 8 = severe, 6 = moderate
Experimental: In this example This is an example of an automated text message exchange with a user for a 9 day (consecutive) dose titration protocol is sufficient to achieve a minimum effective dose. In this example, Twilio was the automated text messaging service that was used. The cannabinoid medication kit is three 15 ml bottles of CBD tincture (i.e. CBD mixed into an ethyl alcohol base): bottle #1, bottle #2, and bottle #3. Bottle #1 contains CBD at a concentration of 100 mg in 5 ml volume (20 mg/ml). Bottle #2 contains CBD at a higher concentration (2×) of 200 mg in 5 ml volume (40 mg/ml). Bottle #3 contains CBD at a further higher concentration (3×) of 300 mg in 5 ml volume (60 mg/ml). Because the three bottles have different dose amounts, to facilitate identifying the correct bottle and avoid mistakes, bottle #1 has a blue-colored label, bottle #2 has a yellow-colored label, and bottle #3 has an orange-colored label. The user inputs the product code or batch number. This ensures that the relevant dosing protocol is associated with the correct cannabinoid product.
On day #1, the user reports a pain score of 8, indicating severe pain. Accordingly, the user is instructed to take the first dose of 6.25 mg from the (blue bottle) twice daily, and continue this dose regimen for the next three days. To facilitate correct adherence to the instructions, the user is shown an image of the blue bottle and the correct liquid level marking on the graduated dropper. On day #2, the user reports a pain score of 6, indicating a reduction in pain symptoms to a moderate level.
On day #4, the user reports a pain score of 5, indicating a reduction in pain symptoms. […] The user is shown an image of the yellow bottle and the correct liquid level marking on the graduated dropper. On day #5, the user reports a pain score of 7, indicating a flare-up of the pain symptoms. The user is asked whether there were any external factors that might have caused this flare-up. […] Thus, the user is asked whether to pause the protocol to allow the user to reassess whether this treatment will be beneficial. Here, the user desires to continue CBD treatment.
Accordingly, the user is given reassurance and instructed to continue at the same dose (i.e. 12.5 mg twice daily).
It is now time for the user to increase the dose amount to stabilize the pain at that level. Accordingly, the user is instructed to switch to the orange bottle (60 mg/ml) and take 18.75 mg twice daily. The user is shown an image of the orange bottle and the correct liquid level marking on the graduated dropper. […] Accordingly, the user is instructed to continue the same dosing regimen (i.e. 18.75 mg twice daily). […] Accordingly, the user has reached the personalized minimum effective dose and is instructed to continue the same dosing regimen (i.e. 18.75 mg twice daily) from hereon. At the end of the protocol, the user also receives a summary report that indicates the minimum effective dose, the lowest pain score achieved, the starting and ending benchmarks, and a graph plotting the daily symptom scores.

## C=C(C)[C@@H]1CCC(C)=C[C@H]1c1c(O)cc(CCCCC)cc1O [CBD, cannabidiol]
[1]; Subject #C1_4, pain
  minimum optimal dose: 10 mg of CBD/day
[1]; Subject #C1_4, started with score of 3, 0-10 scale
  pain score after completion of the protocol: 0
[2]; days 1-3 max 5 mg, days 4-6 max 10 mg, days 7-9 max 20 mg CBD, FIG. 7
  mean scores, initial versus end score: mean scores improved
[2]; days 1-9, FIG. 8
  mean daily scores, trend line: downward trending line
[3]; Subject #C1_8, anxiety
  minimum optimal dose: 20 mg of CBD/day
[3]; Subject #C1_8, started with score of 5, 0-10 scale
  anxiety score after completion of the protocol: 1
[3]; Subject #C1_10, anxiety
  minimum optimal dose: 10 mg of CBD/day
[3]; Subject #C1_10, started with score of 7, 0-10 scale
  anxiety score after completion of the protocol: 2
[4]; day #2, CBD tincture 6.25 mg twice daily, day #1 score 8
  pain score: 6
[4]; day #3, CBD tincture 6.25 mg twice daily
  pain score: 6
[4]; day #4, after 6.25 mg twice daily for three days
  pain score: 5
[4]; day #5, 12.5 mg twice daily, flare-up
  pain score: 7
[4]; day #6, 12.5 mg twice daily
  pain score: 5
[4]; day #7, after 12.5 mg twice daily
  pain score: 4
[4]; day #8, 18.75 mg twice daily
  pain score: 4
[4]; day #9, 18.75 mg twice daily
  pain score: 4
[4]; reached on day #9, pain
  personalized minimum effective dose: 18.75 mg twice daily
